Data from ChEMBL document CHEMBL1777747, “Design and synthesis of an ER-specific fluorescent probe based on carboxylesterase activity with quinone methide cleavage process” (Bioorg Med Chem Lett, 2011).

Experiments:
COS-1 = experiment: Cytotoxicity against african green monkey COS1 cells by trypan blue method; type: cell-based; conditions: chlorocebus aethiops
Sus scrofa = species on record: Sus scrofa; experiment: Activity at porcine liver esterase assessed as amount of enzyme required to liberate 1 umol of resorufin/min from compound by fluorescence assay
Cocaine esterase [1] = molecular target: T1, Cocaine esterase (Homo sapiens, UniProt O00748); experiment: Activity at carboxylesterase in human HT-1080 cells assessed as accumulation of resorufin in nucleus at 50 uM after 120 mins by phase contrast microscopic analysis; type: ADME, cell-based; conditions: ht-1080, 2 h
T1 sequence (O00748 whole entry): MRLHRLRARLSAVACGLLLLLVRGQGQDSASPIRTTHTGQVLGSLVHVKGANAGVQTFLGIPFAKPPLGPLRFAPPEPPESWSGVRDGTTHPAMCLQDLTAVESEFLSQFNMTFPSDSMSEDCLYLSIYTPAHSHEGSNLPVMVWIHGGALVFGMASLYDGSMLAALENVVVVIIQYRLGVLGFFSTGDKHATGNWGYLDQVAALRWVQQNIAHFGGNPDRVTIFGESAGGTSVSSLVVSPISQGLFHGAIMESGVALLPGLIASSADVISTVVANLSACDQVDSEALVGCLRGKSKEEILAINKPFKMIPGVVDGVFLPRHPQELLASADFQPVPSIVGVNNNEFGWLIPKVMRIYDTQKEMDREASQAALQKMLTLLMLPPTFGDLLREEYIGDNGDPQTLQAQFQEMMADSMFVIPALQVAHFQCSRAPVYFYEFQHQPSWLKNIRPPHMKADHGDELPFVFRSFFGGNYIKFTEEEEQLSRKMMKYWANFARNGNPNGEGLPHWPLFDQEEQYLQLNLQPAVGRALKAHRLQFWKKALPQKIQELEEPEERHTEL

HT-1080 = experiment: Cytotoxicity against human HT1080 cells by trypan blue method; type: cell-based
[2] = Activity at carboxylesterase in african green monkey COS1 cells assessed as accumulation of resorufin in nucleus at 50 uM after 120 mins by phase contrast microscopic analysis; type: ADME, cell-based; conditions: chlorocebus aethiops, cos-1, 2 h
[3] = Activity at carboxylesterase in african green monkey COS1 cells assessed as accumulation of resorufin in endoplasmic reticulum at 50 uM after 120 mins by phase contrast microscopic analysis; type: ADME, cell-based; conditions: chlorocebus aethiops, cos-1, 2 h
Cocaine esterase [4] = molecular target: T1, Cocaine esterase; experiment: Activity at carboxylesterase in human HT-1080 cells assessed as accumulation of resorufin in endoplasmic reticulum at 50 uM after 120 mins by phase contrast microscopic analysis; type: ADME, cell-based; conditions: ht-1080, 2 h

Activity (Sus scrofa): 0.05 U/mg
Activity (Cocaine esterase [1]): Active
Activity [2]: Active
Activity [3]: Active
Activity (Cocaine esterase [4]): Active
Compound: CCCC(=O)Oc1ccc(COc2ccc3nc4ccc(=O)cc-4oc3c2)cc1
Activity (COS-1): Non-toxic
Activity (HT-1080): Non-toxic
